For the assay, the system named is soybean rust fungus (Phakopsora pachyrhizi) having an amino acid substitution of F129L in a mitochondrial cytochrome b protein. The assay can be described thus: Leaf disc test of control of soybean rust (lesion area) after spraying the test compound. It is filed as in vivo. The note with it: Comparative Test Example 1, according to Test Example 1. As to the method: A true leaf of a soybean (cultivar: Kurosengoku) was cut into a diameter of 1 cm to prepare each leaf disc. To each well of a 24 well microplate was dispensed 1 mL of an agar medium (agar concentration 1.2%), and then one of said leaf disc was placed on each well. To a mixture of Sorpol (registered trademark) 1200KX (0.5 μL), DMSO (4.5 μL), and xylene (5 μL) was added a DMSO solution (20 μL) comprising a test compound (10000 ppm), and the resulting mixture was mixed. The resulting mixture was diluted with ion exchange water to prepare a spray solution comprising a prescribed concentration of the test compound. Said spray solution was sprayed into each leaf disc at a ratio of 10 μL per leaf disc. After 1 day, an aqueous suspension of spores of soybean rust fungus (Phakopsora pachyrhizi) having an amino acid substitution of F129L in a mitochondrial cytochrome b protein (1.0×10^5/mL) was inoculated by spraying on each leaf disc. After the inoculation, the microplate was placed into an artificial climate chamber (Lighting: 6 hours, Lights-out: 18 hours, Temperature: 23° C., Humidity: 60%). After 1 day, the leaf discs were air-dried until water droplets on the surfaces of the leaf discs disappeared, and the microplate was placed into the artificial climate chamber again for 12 days. Then, lesion area of soybean rust was investigated. As a result, when the prescribed concentration was 50 ppm, each lesion area of leaf disc treated with any one of the Present compound 2 to 13, 15 to 30, 33 to 40, 42 to 49, 52 to 56, 58, 60, 65, 66, or 74 to 79 as the test compound was 30% or less relative to the lesion area of non-treated leaf disc. Here, the term of “non-treated” means that a spray solution comprising a test compound was not sprayed into a leaf disc.
Each test is carried out according to the Test Example 1 by using any one of the Present compound S as the test compound with a prescribed concentration of 12.5 ppm. As a result, control effects on soybean rust can be confirmed in the leaf discs treated with test compounds.
Each test is carried out according to the Test Example 1 by using any one of the Present compound S as the test compound with a prescribed concentration of 3.1 ppm. As a result, control effects on soybean rust can be confirmed in the leaf discs treated with test compounds.
Each test was carried out according to the Test Example 1 by using the Present compound 4, 3, 11, or 42, or azoxystrobin, dimoxystrobin, or metominostrobin as the test compound with a prescribed concentration of 50 ppm.

Take `CNC(=O)/C(=N/OC)c1ccccc1Oc1ccccc1` [Metominostrobin, reference compound]: the “Lesion area (%) at the concentration of 50 ppm” value (shortened to “Lesion area (%)”) turned out to be 100%.
On to `CO/C=C(/C(=O)OC)n1c2ccccc2c2ccc(Br)cc21` [Present compound 4], for which the “Lesion area (%)” value is recorded as 0%.
Take `CO/C=C(/C(=O)OC)n1ccc2ccc(C#CC3CC3)cc21` [Present compound 11]: the “Lesion area (%)” value is 0%.
For `CO/C=C(/C(=O)OC)n1ccc2ccc(/C(C)=N/OC)cc21` [Present compound 42], the “Lesion area (%)” value was determined as 0%.
Regarding `CO/C=C(/C(=O)OC)n1ncc2ccc(-c3ccccc3)cc21` [Present compound 3], the “Lesion area (%)” value is listed as 0%.
In the case of `CNC(=O)/C(=N/OC)c1ccccc1COc1cc(C)ccc1C` [Dimoxystrobin, reference compound] it was 100%; in that of `CO/C=C(/C(=O)OC)c1ccccc1Oc1cc(Oc2ccccc2C#N)ncn1` [Azoxystrobin, reference compound], 100%.

Values taken from patent publication US20230232827A1, “METHOD FOR C[…] RUST FUNGUS RESISTANT TO QoI FUNGICIDES” (SUMITOMO CHEMICAL COMPANY, LIMITED, priority 2020, published 2023).
